Measurements: patent US10040893B2, “Polymeric photoinitiators and photoinitiator monomers” (Coloplast A/S, priority 2012, dated 2018)

Columns and labels:
[1] = Qualitative solubility comparison of monomeric photoinitiators; assay type: physicochemical; settings: photoinitiator monomer; concentration and temperature printed in the cell

water solubility [1]	UV absorption wavelength (350-400 nm band region)	E1^1 (extinction coefficient of absorption) (at the stated absorption wavelength)	Compound
sparingly soluble at 100 °C			O=c1c2ccccc2sc2c(OCCCN(CCO)CCO)ccc(Cl)c12 [Preparatory Example 2, 4-{3-[bis(2-hydroxyethyl)amino]propoxy}-1-chloro-9H-thioxanthen-9-one]
	387 nm	175	CCCOc1ccc(Cl)c2c(=O)c3ccccc3sc12 [1-chloro-4-propoxy thioxanthone]
sparingly soluble at 100 °C			O=C(c1ccccc1)c1ccc(OCCCN(CCO)CCO)cc1 [Preparatory Example 1, 4-{3-[bis(2-hydroxyethyl)amino]propoxy}benzophenone]
